Test results published in ChEMBL document CHEMBL1201862, “PubChem BioAssay data set” (2004).
The source made the active and inactive calls.

Key:
Escherichia coli [1] = assay: microbe, parasite or virus in culture
Escherichia coli [2] = assay: microbe, parasite or virus in culture; remark: listed apart in the source
[3] = biological target: UDP-galactopyranose mutase (Mycobacterium tuberculosis, UniProt P9WIQ1); assay: Inhibitors of Mycobacterium tuberculosis UDP-galactopyranose mutase (UGM) enzyme Measured in Biochemical System Using Plate Reader - 2105-02_Inhibitor_Dose_CherryPick_Activity. [Related pubchem assays (depositor defined):AID504439]
Chain of UDP-galactopyranose mutase (P9WIQ1 whole entry): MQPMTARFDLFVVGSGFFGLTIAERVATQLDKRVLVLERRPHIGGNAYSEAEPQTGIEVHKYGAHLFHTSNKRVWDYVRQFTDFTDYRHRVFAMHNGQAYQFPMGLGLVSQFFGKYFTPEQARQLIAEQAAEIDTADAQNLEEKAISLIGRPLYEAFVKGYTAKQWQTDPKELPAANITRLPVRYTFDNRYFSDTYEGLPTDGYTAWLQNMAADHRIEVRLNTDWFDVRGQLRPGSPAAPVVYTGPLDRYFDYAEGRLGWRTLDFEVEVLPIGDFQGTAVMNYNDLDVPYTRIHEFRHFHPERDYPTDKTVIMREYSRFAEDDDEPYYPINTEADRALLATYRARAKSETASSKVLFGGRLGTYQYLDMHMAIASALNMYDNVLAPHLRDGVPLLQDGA

[4] = biological target: T1, Zinc finger protein mex-5 (Caenorhabditis elegans, UniProt Q9XUB2); assay: MEX-5/TCR-2 RNA interaction inhibitors, dose response, biochemical, C. elegans, fluorescence polarization (AID 1960)
T1 sequence (Q9XUB2 whole entry): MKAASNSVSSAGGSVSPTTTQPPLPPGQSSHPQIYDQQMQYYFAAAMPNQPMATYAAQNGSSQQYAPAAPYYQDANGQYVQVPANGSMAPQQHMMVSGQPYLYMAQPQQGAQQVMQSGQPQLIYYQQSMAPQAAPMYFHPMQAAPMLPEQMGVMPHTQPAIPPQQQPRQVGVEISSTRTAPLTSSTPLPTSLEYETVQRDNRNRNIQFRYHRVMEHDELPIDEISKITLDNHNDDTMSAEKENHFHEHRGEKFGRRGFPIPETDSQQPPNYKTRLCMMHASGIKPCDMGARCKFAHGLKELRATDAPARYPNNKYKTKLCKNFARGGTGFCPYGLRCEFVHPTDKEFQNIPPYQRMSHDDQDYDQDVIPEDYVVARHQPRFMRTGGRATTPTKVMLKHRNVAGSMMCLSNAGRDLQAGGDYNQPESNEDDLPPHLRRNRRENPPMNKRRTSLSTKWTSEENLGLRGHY

[5] = biological target: T2, RNA-binding protein pos-1 (Caenorhabditis elegans, UniProt G5EF15); assay: inhibitors of POS-1/mex-3 RNA binding, dose response, biochemical, fluorescence polarization (AID 1964);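 further: purified POS-1 fused to maltose binding protein made in E. coli; potency of compounds blocking POS-1 binding to fluorescent RNA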
T2 sequence (G5EF15 whole entry): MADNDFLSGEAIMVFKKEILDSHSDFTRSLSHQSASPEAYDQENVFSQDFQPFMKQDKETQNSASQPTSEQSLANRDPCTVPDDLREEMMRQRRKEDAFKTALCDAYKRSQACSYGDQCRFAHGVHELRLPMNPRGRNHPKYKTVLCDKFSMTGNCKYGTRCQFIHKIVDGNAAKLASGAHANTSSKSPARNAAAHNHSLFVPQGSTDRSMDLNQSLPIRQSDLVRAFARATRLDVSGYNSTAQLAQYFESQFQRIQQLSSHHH

ORF 73 = biological target: T3, ORF 73 (Human herpesvirus 8, UniProt O40947); assay: inhibitors of C-LANA binding to LBS DNA, dose response, biochemical, fluorescence polarization, cherry-picked samples (AID 504725); parameters: species or system Human gammaherpesvirus 8;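 further: fluorescence polarization of a labeled DNA duplex reporting LANA DNA binding; potency is for inhibitors that block LANA binding to the DNA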
T3 sequence (O40947 whole entry): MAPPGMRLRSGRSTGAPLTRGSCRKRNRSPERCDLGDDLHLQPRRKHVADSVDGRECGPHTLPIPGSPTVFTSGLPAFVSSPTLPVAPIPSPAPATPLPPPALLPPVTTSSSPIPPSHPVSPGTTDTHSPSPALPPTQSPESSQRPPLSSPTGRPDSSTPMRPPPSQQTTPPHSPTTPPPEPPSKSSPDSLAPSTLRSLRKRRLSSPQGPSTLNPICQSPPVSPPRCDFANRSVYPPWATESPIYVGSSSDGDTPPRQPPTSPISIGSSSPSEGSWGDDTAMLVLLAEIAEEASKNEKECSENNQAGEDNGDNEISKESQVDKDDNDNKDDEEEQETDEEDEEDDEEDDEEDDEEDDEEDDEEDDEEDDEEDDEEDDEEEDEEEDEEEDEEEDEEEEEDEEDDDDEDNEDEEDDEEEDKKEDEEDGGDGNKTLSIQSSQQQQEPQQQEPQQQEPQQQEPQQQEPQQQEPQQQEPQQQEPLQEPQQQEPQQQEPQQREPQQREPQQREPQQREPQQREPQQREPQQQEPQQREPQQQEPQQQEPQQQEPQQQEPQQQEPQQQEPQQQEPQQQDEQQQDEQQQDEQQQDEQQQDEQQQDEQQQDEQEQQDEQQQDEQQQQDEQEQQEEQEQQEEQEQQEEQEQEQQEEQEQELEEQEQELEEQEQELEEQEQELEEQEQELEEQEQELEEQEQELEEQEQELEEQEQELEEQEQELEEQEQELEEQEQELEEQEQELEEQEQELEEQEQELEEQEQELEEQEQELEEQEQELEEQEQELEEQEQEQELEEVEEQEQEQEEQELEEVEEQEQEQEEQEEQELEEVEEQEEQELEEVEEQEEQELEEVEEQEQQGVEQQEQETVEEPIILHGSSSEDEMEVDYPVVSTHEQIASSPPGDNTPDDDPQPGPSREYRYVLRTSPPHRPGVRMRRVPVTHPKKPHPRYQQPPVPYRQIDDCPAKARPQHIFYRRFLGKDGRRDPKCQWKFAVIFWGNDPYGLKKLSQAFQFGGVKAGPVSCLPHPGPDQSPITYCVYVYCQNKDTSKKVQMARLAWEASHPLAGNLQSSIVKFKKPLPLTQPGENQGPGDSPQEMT

Genome polyprotein = Genome polyprotein (dengue virus type 2, UniProt P29990); assay: Dengue-2 NS5 methyltransferase inhibitors, primary screen, biochemical, confirmation dose response (AID 588689); type: functional
Chain of Genome polyprotein (P29990 2492-3391 limits assumed): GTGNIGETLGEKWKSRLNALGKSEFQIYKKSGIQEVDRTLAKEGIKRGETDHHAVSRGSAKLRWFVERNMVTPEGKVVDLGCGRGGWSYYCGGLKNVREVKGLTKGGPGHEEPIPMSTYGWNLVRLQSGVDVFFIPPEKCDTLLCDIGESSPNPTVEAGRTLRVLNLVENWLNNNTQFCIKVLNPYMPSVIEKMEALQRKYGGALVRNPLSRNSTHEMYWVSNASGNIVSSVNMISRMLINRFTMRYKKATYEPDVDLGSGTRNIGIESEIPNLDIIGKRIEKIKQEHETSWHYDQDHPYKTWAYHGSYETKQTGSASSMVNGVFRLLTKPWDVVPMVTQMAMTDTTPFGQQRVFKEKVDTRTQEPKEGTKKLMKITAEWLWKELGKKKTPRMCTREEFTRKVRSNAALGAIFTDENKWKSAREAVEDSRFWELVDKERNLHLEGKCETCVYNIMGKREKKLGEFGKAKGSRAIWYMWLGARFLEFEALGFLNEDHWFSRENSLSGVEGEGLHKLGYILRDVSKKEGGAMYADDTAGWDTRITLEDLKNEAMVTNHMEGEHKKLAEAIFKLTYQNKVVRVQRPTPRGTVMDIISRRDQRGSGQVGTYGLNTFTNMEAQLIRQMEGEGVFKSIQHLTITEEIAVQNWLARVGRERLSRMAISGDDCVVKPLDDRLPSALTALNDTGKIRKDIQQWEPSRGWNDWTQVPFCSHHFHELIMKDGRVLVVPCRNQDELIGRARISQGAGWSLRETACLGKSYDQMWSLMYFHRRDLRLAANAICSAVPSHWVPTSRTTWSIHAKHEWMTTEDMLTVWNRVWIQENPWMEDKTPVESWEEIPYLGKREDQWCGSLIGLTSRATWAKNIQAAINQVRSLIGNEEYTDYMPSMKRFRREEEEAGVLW

Nonstructural protein 1 = Nonstructural protein 1 (Influenza A virus, UniProt Q194T2); type: functional, Influenza A virus (A/California/07/2009(H1N1))
Chain of Nonstructural protein 1 (Q194T2 whole entry): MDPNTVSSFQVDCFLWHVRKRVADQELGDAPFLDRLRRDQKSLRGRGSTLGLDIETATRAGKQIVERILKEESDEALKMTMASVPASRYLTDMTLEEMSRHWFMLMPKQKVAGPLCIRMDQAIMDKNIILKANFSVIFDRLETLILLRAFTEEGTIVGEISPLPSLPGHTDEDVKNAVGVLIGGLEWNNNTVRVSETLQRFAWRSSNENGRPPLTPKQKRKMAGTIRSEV

[6] = biological target: Glucose-6-phosphate 1-dehydrogenase (Homo sapiens, UniProt P11413); assay: human G6PD enzyme inhibitors, dose response, selectivity assay for P. falciparum G6PD inhibitor project, biochemical, fluorescence (AID 504792); type: functional
Chain of Glucose-6-phosphate 1-dehydrogenase (P11413 whole entry): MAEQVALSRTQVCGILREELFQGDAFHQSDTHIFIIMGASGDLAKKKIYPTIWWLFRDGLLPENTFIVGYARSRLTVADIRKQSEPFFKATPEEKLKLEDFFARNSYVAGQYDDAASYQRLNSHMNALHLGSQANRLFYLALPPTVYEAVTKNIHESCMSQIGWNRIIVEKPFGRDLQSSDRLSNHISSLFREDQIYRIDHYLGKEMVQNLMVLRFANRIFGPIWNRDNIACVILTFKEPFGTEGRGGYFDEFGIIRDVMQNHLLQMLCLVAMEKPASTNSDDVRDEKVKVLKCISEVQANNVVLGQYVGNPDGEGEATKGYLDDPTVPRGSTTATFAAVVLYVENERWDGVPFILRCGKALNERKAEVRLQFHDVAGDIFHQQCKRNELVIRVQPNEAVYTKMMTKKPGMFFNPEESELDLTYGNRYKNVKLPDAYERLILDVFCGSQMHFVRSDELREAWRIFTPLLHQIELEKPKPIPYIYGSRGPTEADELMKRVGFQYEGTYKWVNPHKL

Hexokinase HKDC1 = biological target: T4, Hexokinase HKDC1 (Homo sapiens, UniProt Q2TB90); assay: HKDC1 hexokinase inhibitors, dose response, biochemical, W721R variant (AID 504729); type: functional
T4 sequence (Q2TB90 whole entry): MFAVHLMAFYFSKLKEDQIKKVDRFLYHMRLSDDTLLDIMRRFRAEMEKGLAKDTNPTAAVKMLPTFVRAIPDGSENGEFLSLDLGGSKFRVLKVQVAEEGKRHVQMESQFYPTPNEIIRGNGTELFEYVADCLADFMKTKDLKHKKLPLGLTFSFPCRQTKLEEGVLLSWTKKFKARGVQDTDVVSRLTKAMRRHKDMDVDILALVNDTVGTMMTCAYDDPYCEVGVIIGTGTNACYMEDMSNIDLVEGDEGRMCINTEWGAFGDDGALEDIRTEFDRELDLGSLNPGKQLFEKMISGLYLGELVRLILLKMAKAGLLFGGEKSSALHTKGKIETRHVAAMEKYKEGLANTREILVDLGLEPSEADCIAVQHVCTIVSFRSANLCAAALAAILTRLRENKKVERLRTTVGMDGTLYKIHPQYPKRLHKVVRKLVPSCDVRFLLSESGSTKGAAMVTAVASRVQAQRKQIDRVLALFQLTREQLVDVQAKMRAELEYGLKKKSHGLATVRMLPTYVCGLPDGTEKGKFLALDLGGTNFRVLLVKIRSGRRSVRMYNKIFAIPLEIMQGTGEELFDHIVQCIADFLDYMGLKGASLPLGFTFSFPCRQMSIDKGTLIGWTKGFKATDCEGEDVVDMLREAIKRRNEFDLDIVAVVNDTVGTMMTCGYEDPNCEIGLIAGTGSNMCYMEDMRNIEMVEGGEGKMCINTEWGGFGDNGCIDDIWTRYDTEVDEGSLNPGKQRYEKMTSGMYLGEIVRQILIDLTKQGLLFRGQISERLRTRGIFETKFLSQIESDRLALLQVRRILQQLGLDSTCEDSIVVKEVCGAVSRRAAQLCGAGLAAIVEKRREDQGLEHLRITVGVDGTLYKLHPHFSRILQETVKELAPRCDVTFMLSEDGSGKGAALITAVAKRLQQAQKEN

[7] = THP-1 cell cytotoxicity, dose response, cytotoxicity control for Vif-APOBEC3G degradation inhibitor project, THP-1 cells (AID 1117359); type: functional; conditions: Human immunodeficiency virus 1, THP-1
[8] = biological target: T5, Histone-lysine N-methyltransferase NSD2 (Homo sapiens, UniProt O96028); type: biochemical
T5 sequence (O96028 whole entry): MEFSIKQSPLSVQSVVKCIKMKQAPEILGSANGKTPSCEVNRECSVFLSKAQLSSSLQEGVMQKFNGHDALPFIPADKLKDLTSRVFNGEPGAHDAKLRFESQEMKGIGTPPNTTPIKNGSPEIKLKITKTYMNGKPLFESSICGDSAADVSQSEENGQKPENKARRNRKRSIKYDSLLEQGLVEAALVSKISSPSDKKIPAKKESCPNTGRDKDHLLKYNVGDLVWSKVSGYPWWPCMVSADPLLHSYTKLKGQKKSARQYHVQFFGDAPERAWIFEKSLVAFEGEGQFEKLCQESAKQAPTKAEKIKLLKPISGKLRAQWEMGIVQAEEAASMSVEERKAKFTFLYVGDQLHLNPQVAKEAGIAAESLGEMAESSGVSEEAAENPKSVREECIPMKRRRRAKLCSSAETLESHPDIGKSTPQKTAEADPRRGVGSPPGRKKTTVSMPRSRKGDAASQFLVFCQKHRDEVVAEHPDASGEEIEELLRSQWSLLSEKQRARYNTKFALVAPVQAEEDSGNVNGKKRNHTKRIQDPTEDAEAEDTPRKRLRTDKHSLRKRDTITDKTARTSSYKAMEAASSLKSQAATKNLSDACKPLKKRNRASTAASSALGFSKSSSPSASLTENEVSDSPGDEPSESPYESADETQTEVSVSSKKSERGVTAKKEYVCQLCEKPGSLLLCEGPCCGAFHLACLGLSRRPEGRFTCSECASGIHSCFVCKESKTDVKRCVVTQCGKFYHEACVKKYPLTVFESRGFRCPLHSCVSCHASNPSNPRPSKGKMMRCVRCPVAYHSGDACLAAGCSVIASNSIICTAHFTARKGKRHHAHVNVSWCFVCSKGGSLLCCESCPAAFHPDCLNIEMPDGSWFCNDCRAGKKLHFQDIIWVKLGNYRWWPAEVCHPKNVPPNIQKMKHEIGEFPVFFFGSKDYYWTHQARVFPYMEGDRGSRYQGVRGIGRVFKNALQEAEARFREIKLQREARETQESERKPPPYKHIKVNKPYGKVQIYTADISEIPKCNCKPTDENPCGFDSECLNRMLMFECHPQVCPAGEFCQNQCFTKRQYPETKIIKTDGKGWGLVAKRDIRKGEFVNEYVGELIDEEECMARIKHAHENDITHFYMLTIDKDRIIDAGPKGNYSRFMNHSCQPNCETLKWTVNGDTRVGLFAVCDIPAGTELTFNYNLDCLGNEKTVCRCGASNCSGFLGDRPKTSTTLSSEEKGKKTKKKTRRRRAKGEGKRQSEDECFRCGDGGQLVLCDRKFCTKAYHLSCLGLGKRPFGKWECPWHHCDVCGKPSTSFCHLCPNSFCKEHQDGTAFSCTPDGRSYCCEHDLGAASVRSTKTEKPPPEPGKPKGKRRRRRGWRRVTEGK

Beta-galactosidase = Beta-galactosidase (Escherichia coli, UniProt Q8VNN2); assay: beta-galactosidase enzyme inhibitors and activators, dose response, artefact control for CCR6 antagonist project, biochemical, E. coli enzyme, set 3 (AID 504712); type: functional
Chain of Beta-galactosidase (Q8VNN2 whole entry): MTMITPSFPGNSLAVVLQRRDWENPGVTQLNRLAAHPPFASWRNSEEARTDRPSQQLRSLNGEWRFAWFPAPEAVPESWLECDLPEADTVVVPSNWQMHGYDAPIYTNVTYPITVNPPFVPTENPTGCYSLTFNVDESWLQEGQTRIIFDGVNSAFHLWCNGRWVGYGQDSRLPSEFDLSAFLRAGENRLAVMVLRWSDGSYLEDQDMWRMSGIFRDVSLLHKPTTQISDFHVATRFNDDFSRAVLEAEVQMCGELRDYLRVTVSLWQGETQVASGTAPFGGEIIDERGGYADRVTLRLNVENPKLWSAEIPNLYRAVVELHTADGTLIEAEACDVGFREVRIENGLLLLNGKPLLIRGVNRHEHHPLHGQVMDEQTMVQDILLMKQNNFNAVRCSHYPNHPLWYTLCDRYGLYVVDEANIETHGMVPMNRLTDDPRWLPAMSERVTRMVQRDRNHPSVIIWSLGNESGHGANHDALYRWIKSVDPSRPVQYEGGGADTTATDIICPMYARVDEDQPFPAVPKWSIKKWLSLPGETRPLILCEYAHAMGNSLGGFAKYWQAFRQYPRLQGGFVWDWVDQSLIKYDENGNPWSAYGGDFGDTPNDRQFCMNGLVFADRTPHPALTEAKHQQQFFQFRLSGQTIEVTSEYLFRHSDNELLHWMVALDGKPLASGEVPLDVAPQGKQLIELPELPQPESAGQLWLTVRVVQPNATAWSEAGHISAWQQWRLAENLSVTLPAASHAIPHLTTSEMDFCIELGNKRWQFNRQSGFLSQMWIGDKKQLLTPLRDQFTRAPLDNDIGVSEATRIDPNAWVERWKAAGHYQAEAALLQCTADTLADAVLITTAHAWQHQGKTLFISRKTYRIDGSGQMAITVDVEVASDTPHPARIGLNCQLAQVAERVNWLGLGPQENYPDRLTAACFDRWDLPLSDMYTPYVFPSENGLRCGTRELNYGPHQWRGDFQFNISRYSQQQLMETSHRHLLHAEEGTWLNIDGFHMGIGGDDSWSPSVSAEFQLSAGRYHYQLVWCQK

Vero = Vero cell cytotoxicity, cytotoxicity control for flavivirus capping enzyme inhibitors (AID 588742); type: functional; conditions: Chlorocebus sabaeus
[9] = biological target: Delta-type opioid receptor (Homo sapiens, UniProt P41143); assay: Counterscreen for agonists of heterodimerization of the mu 1 (OPRM1) and delta 1 (OPRD1) opioid receptors: Luminescence-based cell-based high throughput dose response assay to identify agonists of OPRD1 homodimerization. [Related pubchem assays (depositor defined):AID504326, AID504355, AID504692, AID504904, AID504905]; type: functional
Chain of Delta-type opioid receptor (P41143 whole entry): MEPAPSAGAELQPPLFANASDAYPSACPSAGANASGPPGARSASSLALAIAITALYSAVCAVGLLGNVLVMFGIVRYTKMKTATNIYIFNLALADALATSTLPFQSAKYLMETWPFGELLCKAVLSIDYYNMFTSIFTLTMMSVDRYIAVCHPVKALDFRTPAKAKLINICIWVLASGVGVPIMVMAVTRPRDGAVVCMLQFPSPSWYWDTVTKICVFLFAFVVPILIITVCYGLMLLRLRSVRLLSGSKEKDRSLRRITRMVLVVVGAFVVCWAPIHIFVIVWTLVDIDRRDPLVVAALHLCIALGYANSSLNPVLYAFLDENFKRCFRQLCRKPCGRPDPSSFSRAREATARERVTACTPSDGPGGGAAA

Mu-type opioid receptor = Mu-type opioid receptor (Homo sapiens, UniProt P35372); assay: Counterscreen for agonists of heterodimerization of the mu 1 (OPRM1) and delta 1 (OPRD1) opioid receptors: Luminescence-based cell-based high throughput dose response assay to identify agonists of OPRM1 homodimerization.; type: functional;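 further: U2OS cells expressing OPRM1 and beta-arrestin as split beta-galactosidase partners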
Chain of Mu-type opioid receptor (P35372 whole entry): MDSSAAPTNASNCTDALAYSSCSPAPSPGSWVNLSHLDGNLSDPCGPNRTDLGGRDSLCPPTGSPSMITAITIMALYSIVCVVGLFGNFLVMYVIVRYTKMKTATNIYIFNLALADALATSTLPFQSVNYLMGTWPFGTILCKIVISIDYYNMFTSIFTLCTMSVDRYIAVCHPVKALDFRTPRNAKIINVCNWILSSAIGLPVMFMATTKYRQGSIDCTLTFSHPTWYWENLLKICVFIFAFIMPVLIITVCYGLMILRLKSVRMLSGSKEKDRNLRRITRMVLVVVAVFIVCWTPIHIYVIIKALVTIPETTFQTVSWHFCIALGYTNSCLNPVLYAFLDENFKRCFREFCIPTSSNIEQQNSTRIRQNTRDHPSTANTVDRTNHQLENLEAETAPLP

[10] = biological target: 5-hydroxytryptamine receptor 5A (Homo sapiens, UniProt P47898); assay: Counterscreen for agonists of OPRM1-OPRD1 heterodimerization: luminescence-based cell-based high throughput dose response assay to identify agonists of 5-hydroxytryptamine (serotonin) 5A receptor (HTR5A). [Related pubchem assays (depositor defined):AID504326, AID504355, AID504692, AID504904, AID504905]; type: functional
Chain of 5-hydroxytryptamine receptor 5A (P47898 whole entry): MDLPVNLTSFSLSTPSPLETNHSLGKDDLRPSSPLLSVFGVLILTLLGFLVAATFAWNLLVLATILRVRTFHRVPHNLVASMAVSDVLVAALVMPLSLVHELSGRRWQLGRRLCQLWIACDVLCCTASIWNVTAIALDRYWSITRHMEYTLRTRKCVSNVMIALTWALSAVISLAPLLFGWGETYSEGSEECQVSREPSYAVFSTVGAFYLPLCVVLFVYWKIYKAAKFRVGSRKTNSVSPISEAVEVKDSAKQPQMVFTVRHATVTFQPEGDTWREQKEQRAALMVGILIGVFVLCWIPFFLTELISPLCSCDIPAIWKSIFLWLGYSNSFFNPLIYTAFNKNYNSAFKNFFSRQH

[11] = biological target: Opioid receptors; mu & delta (Homo sapiens, UniProt P41143+P35372); assay: agonists of MOR-DOR heterodimerization, dose response, cell-based, luminescence (AID 588407); type: functional

In the case of `Cc1nn(C)cc1S(=O)(=O)Nc1ccccc1Br`, the AC50 (Escherichia coli [1]) is reported as 66.8 µM (active) and the AC50 (Escherichia coli [2]) is reported as 65.8 µM (active).
With `Cc1ccc(C)c(N2CCN(C(=O)c3cc4ccccn4n3)CC2)c1` the AC50 [3] was 177 µM (active), the EC50 [4] was 33.7 µM (active) and the EC50 [5] was 72.9 µM (active). For the same compound, the AC50 (ORF 73) was 269 µM (active).
In the case of `CC1COCC(C)N1C1=C(Cl)C(=O)c2ccccc2C1=O` (stereo not drawn), the IC50 (Genome polyprotein) is reported as 16.2 µM (active), the IC50 (Nonstructural protein 1) is reported as 17.9 µM (active) and the IC50 [6] is reported as 72.9 µM (inactive). For the same compound, the IC50 (Hexokinase HKDC1) was > 80 µM (inactive), the CC50 [7] was 16.1 µM (active) and the AC50 [8] was 0.873 µM (active). For the same compound, the IC50 (Beta-galactosidase) was > 66.6 µM (inactive) and the CC50 (Vero) was 23.4 µM (active).
With `COc1ccc(NC(=O)COc2ccccc2C(=O)NCC(c2ccccc2)N(C)C)cc1Cl` (stereo not drawn) the EC50 [9] was 9.79 µM (active), the EC50 (Mu-type opioid receptor) was > 92.5 µM (inactive) and the EC50 [10] was > 92.5 µM (inactive). The EC50 [11] was greater than 3.425 µM.
